Laboratory results taken from ChEMBL document CHEMBL1150983, “Synthesis of novel taxol analogs and evaluation of their biological activities” (1997).
pEC50: −log10 of the molar value.

System: J774.2
Test: Cytotoxicity tested against J774.2 cells.
Assay type: functional
Conditions: Mus musculus, read-out: ED50 (the source's name)

Structure (SMILES)	pEC50
CC(=O)O[C@H]1C(=O)[C@@]2(C)[C@H]([C@H](OC(=O)c3ccccc3)[C@]3(O)C[C@H](OC(=O)[C@H](O)[C@@H](NC(=O)c4ccccc4)c4ccccc4)C(C)=C1C3(C)C)[C@]1(OC(C)=O)CO[C@@H]1[C@@H]2O	6.60
CC(=O)O[C@H]1C(=O)[C@@]2(C)[C@H]([C@H](OC(=O)c3ccccc3)[C@]3(O)C[C@H](OC(=O)[C@H](O)[C@@H](NC(=O)c4ccccc4)c4ccccc4)C(C)=C1C3(C)C)[C@]1(OC(C)=O)CO[C@@H]1C[C@@H]2O [PACLITAXEL]	7.80
CC(=O)O[C@@]12CO[C@@H]1C[C@@H](O)[C@@]1(C)C(=O)c3[se]cc4c3[C@@](C(C)(C)O)(C[C@@H]4OC(=O)[C@H](O)[C@@H](NC(=O)c3ccccc3)c3ccccc3)[C@@H](OC(=O)c3ccccc3)[C@H]21	6.05
